Data on 1 compound can be found in patent US20100217003A1, “1,2,3,4-TETRAHYDROISOQUINOLINE DERIVATIVES HAVING EFFECTS OF PREVENTING AND TREATING DEGENERATIVE AND INFLAMMATORY DISEASES” (priority 2006, published 2010).

The subject of the assay is activated microglial cell. As to the kind of experiment: BH4 production in an activated microglial cell. The following applies: activated microglial cell (FIG. 12). Format: cell-based.

Regarding `COc1cc2c(cc1O)CNCC2` [HMTIQ, 7-hydroxy-6-methoxy-1,2,3,4-tetrahydroisoquinoline], the BH4 production result is given as “inhibitory effect”.
